Measurements: paper PMC6630832, “3-Vinylazetidin-2-Ones: Synthesis, Antiproliferative and Tubulin Destabilizing Activity in MCF-7 and MDA-MB-231 Breast Cancer Cells” (Pharmaceuticals, 2019)
Where “and” joins values, the source holds several entries; their conditions need not be identical. Equal entries are not always repeated. Where two headings read alike, the source gives them in different places.

Legend:
[1] = target: T1, purified bovine tubulin (Bos taurus, UniProt P81947+Q6B856); assay: Tubulin polymerization assay; format: biochemical; settings: for vmax of tubulin polymerization: absorbance at 340 nm, 37 °C
T1 construct: Purified (>99%) bovine brain tubulin (3 mg/mL); purchased Cytoskeleton Inc. BK006; host or cells: bovine brain (tissue-purified)
T1 sequence (Q6B856 whole entry): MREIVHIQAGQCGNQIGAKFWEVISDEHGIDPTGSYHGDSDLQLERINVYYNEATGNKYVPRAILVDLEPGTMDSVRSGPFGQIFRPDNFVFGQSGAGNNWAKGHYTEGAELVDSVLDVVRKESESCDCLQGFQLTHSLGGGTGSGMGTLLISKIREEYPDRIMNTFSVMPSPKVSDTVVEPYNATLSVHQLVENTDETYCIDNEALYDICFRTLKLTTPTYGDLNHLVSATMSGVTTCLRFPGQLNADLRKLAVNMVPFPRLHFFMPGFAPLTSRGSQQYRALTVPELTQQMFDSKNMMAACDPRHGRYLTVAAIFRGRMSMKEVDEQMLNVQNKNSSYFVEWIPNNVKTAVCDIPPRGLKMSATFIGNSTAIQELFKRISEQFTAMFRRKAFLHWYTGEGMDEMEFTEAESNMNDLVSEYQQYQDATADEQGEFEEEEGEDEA
T1 sequence (P81947 whole entry): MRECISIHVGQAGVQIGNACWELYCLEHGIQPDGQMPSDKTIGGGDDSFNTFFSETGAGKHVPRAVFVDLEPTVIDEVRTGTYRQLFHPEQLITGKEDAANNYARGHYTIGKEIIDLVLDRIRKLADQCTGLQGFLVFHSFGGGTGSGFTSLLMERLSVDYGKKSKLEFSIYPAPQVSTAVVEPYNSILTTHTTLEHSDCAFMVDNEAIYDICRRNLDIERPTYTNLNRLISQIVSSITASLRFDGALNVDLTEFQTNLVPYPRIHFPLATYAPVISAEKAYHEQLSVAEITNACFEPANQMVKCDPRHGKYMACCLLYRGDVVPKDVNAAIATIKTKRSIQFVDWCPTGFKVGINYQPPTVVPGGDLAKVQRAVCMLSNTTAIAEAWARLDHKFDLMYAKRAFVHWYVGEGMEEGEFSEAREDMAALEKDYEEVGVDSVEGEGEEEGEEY
Protocol: The assembly of purified bovine tubulin was monitored using a kit, BK006, purchased from Cytoskeleton Inc., 1830 S Acoma St, Denver, CO, 80223, USA.. The assay was carried out in accordance with the manufacturer’s instructions in the tubulin polymerisation assay kit manual using the standard assay conditions. The values reported represent the average values from two independent assays. Purified (>99%) bovine brain tubulin (3 mg/mL) in a buffer consisting of 80 mM PIPES (pH 6.9), 0.5 mM EGTA, 2 mM MgCl2, 1 mM GTP and 10% glycerol was incubated at 37 °C in the presence of either vehicle (2% (v/v) ddH2O) or compounds 7h, 7i, 7s, 7t (initially 10 µM in EtOH); CA-4 and Paclitaxel were used as controls. Light is scattered proportionally to the concentration of polymerised microtubules in the assay. Therefore, tubulin assembly was monitored turbidimetrically at 340 nm at 37 °C in a Spectramax 340 PC spectrophotometer (Molecular Devices, 3860 N 1st St, San Jose, CA, USA). The absorbance was measured at 30 s intervals for 60 min.

[2] = test system: SF-268; assay: NCI60 screen (SRB), CNS Cancer; format: cell-based; settings: Homo sapiens
[3] = test system: BT-549; assay: NCI60 screen (SRB), Breast cancer; format: cell-based; settings: Homo sapiens
[4] = test system: RXF 393; assay: NCI60 screen (SRB), Renal cancer; format: cell-based; settings: Homo sapiens
[5] = test system: CAKI-1; assay: NCI60 screen (SRB), Renal cancer; format: cell-based; settings: Homo sapiens
[6] = test system: IGROV1; assay: NCI60 screen (SRB), Ovarian cancer; format: cell-based; settings: Homo sapiens, IGROV-1
[7] = test system: HCT-2998; assay: NCI60 screen (SRB), Colon Cancer; format: cell-based
[8] = test system: 786-0; assay: NCI60 screen (SRB), Renal cancer; format: cell-based; settings: Homo sapiens
[9] = test system: SK-MEL-2; assay: NCI60 screen (SRB), Melanoma; format: cell-based; settings: Homo sapiens
[10] = test system: PC-3; assay: NCI60 screen (SRB), Prostate cancer; format: cell-based; settings: Homo sapiens
[11] = test system: NCI/ADR-RES; assay: NCI60 screen (SRB), Ovarian cancer; format: cell-based; settings: Homo sapiens
[12] = test system: HT29; assay: NCI60 screen (SRB), Colon Cancer; format: cell-based; settings: Homo sapiens, HT-29
[13] = test system: SK-MEL-5; assay: NCI60 screen (SRB), Melanoma; format: cell-based; settings: Homo sapiens
[14] = test system: MALME-3M; assay: NCI60 screen (SRB), Melanoma; format: cell-based; settings: Homo sapiens
[15] = test system: UO-31; assay: NCI60 screen (SRB), Renal cancer; format: cell-based; settings: Homo sapiens
[16] = HPLC stability study in phosphate buffers; format: physicochemical; settings: phosphate buffer, read-out: half-life (t½)
Protocol: Analytical high-performance liquid chromatography (HPLC) stability studies were performed using a Symmetry® column (C18, 5 µm, 4.6 × 150 mm), a Waters 2487 Dual Wavelength Absorbance detector, a Waters 1525 binary HPLC pump and a Waters 717 plus Autosampler (Waters Corporation, 34 Maple St, Milford, MA, USA). Samples were detected at wavelength of 254 nm. All samples were analysed using acetonitrile (80%) and water (20%) as the mobile phase over 10 min and a flow rate of 1 mL/min. Stock solutions were prepared by dissolving 5 mg of compound 7s, 17b and 17c in 10 mL of mobile phase. Phosphate buffers at the desired pH values (4, 7.4 and 9) were prepared in accordance with the British Pharmacopoeia monograph 2015. 30 µL of stock solution was diluted with 1 mL of appropriate buffer, shaken and injected immediately. Samples were withdrawn and analysed at time intervals of t = 0 min, 5 min, 30 min, 60 min, 90 min, 120 min, 24 h and 48 h. Plasma stability studies: 360 µL stock solution of compounds 7s, 17b and 17c were transferred to buffered plasma (plasma: buffer = 1:9, 4 mL in total) at 37 °C in screw cap container. Immediately a 250 µL aliquot was withdrawn and added to the Eppendorf tube containing 500 µL ZnSO4.7H2O solution (2% w/v ZnSO4 solution in acetonitrile: water, 1:1). The samples were then centrifuged at 10,000 rpm for 3 min and filtered through a 0.2-micron filter and injected according to the HPLC conditions listed above. Further samples were taken in the same manner every 1 h thereafter up to 6 h. A final sample was taken after 24 h. Whole blood stability studies. A 360 µL aliquot of stock solution of compounds 17b and 17c in acetonitrile was added in whole blood (4 mL, treated with 2% sodium citrate) at 37 °C and 300 µL aliquots were withdrawn at approptiate intervals. Samples were transferred to 1.5 mL Eppenddorf tubes containing 1 mL of ZnSO4. 7H2O solution (2% w/v ZnSO4 solution in acetonitrile: water, 1:1), vortexed and then centrifuged for 5 min at 14,000 rpm. The sample filtered through a 0.2-micron filter and injected according to the HPLC conditions listed above.

[17] = test system: MOLT-4; assay: NCI60 screen (SRB), Leukemia; format: cell-based; settings: Homo sapiens
[18] = test system: SF539; assay: NCI60 screen (SRB), CNS Cancer; format: cell-based; settings: Homo sapiens, SF-539
[19] = test system: SR; assay: NCI60 screen (SRB), Leukemia; format: cell-based; settings: Homo sapiens
[20] = 10 μM, with reference to ethanol control
[21] = NCI60 CNS Cancer cell line SF-268, read-out: GI50
[22] = NCI60 Breast cancer cell line BT-549, read-out: GI50
[23] = NCI60 Renal cancer cell line RXF 393, read-out: GI50
[24] = NCI60 Renal cancer cell line CAKI-1, read-out: GI50
[25] = NCI60 Ovarian cancer cell line IGROV1, read-out: GI50
[26] = NCI60 Colon Cancer cell line HCT-2998, read-out: GI50
[27] = NCI60 Renal cancer cell line 786-0, read-out: GI50
[28] = NCI60 Melanoma cell line SK-MEL-2, read-out: GI50
[29] = NCI60 Prostate cancer cell line PC-3, read-out: GI50
[30] = NCI60 Ovarian cancer cell line NCI/ADR-RES, read-out: GI50
[31] = NCI60 Colon Cancer cell line HT29, read-out: GI50
[32] = NCI60 Melanoma cell line SK-MEL-5, read-out: GI50
[33] = NCI60 Melanoma cell line MALME-3M, read-out: GI50
[34] = NCI60 Renal cancer cell line UO-31, read-out: GI50
[35] = NCI60 Leukemia cell line MOLT-4, read-out: GI50
[36] = NCI60 CNS Cancer cell line SF539, read-out: GI50
[37] = NCI60 Leukemia cell line SR, read-out: GI50

| SMILES | GI50 ([2]; SF-268) [nM] | GI50 ([3]; BT-549) [nM] | fold reduction in vmax of tubulin polymerization [1, 20] | GI50 [2, 21] [nM] | GI50 [3, 22] [nM] | GI50 [4, 23] [nM] | GI50 [5, 24] [nM] | GI50 [6, 25] [nM] | GI50 [7, 26] [nM] | GI50 [8, 27] [nM] | GI50 [9, 28] [nM] | GI50 [10, 29] [nM] | GI50 [11, 30] [nM] | GI50 [12, 31] [nM] | GI50 [13, 32] [nM] | half-life at 14.6 µg/mL ([16]; pH 4) [h] | half-life at 14.6 µg/mL ([16]; pH 7.4) [h] | half-life at 14.6 µg/mL ([16]; pH 9) [h] | GI50 [14, 33] [nM] | GI50 [15, 34] [nM] | further results |
| --- | --- | --- | --- | --- | --- | --- | --- | --- | --- | --- | --- | --- | --- | --- | --- | --- | --- | --- | --- | --- | --- |
| COc1ccc(/C=C\c2cc(OC)c(OC)c(OC)c2)cc1O [CA-4, Combretastatin A-4, reference compound] | – | – | – | – | – | – | – | – | – | – | – | – | – | – | – | – | – | – | – | – | fold reduction in vmax of tubulin polymerization [1]: 5.28 fold |
| C=CC1C(=O)N(c2cc(OC)c(OC)c(OC)c2)C1c1ccc(OC)cc1 (stereo not shown) [Compound 7h, 4-(4-Methoxyphenyl)-1-(3,4,5-trimethoxyphenyl)-3-vinylazetidin-2-one] | 47.6 | 32.5 | 2.45 fold | – | – | – | – | – | – | – | – | – | – | – | – | – | – | – | – | – | GI50 ([4]; RXF 393): 28.7 nM; GI50 ([5]; CAKI-1): 392 nM; GI50 [6]: 40.4 nM; GI50 [7]: 35.3 nM; GI50 ([8]; 786-0): 33.9 nM; GI50 ([9]; SK-MEL-2): 191 nM; GI50 ([10]; PC-3): 37.4 nM; GI50 ([11]; NCI/ADR-RES): 27.2 nM; GI50 [12]: 33.7 nM; vmax of tubulin polymerization ([1]; 10 μM): 3.43 mOD/min; GI50 ([13]; SK-MEL-5): 19.4 nM; GI50 ([14]; Malme-3M): 73 nM; GI50 ([15]; UO-31): 70.9 nM |
| C=CC1C(=O)N(c2cc(OC)c(OC)c(OC)c2)C1c1ccc(OC)c(O)c1 (stereo not shown) [Compound 7s, 4-[3-Hydroxy-4-methoxyphenyl]-1-(3,4,5-trimethoxyphenyl)-3-vinylazetidin-2-one] | – | – | 8.7 fold and 8.70 fold | < 10 | < 10 | 13.6 | 40.2 | < 10 | 36.4 | 27.3 | 31.4 | < 10 | < 10 | 429 | < 10 | > 24 | > 24 | > 24 | 28.3 | 11.1 | fold reduction in vmax of tubulin polymerization ([1]; 1 μM): 2.61 fold; fold reduction in vmax of tubulin polymerization ([1]; 5 μM): 7.31 fold; IC50 ([1]; calculated from 1, 5 and 10 μM, read-out: IC50 for the inhibition of tubulin polymerization): 1370 nM |
| C=CC1C(=O)N(c2cc(OC)c(OC)c(OC)c2)C1c1ccc(OC)c(N)c1 (stereo not shown) [Compound 7t, 4-(3-Amino-4-methoxyphenyl)-1-(3,4,5-trimethoxyphenyl)-3-vinylazetidin-2-one] | 54.6 | 25.9 | 9.15 fold | – | – | – | – | – | – | – | – | – | – | – | – | – | – | – | – | – | GI50 ([17]; MOLT-4): 40 nM; GI50 ([4]; RXF 393): 36.6 nM; GI50 ([5]; CAKI-1): 32.9 nM; GI50 [6]: 49.6 nM; GI50 [7]: 36.8 nM; GI50 ([8]; 786-0): 34.6 nM; GI50 ([9]; SK-MEL-2): 65.6 nM; GI50 ([10]; PC-3): 41.5 nM; GI50 ([11]; NCI/ADR-RES): < 10 nM; GI50 [12]: 17.9 nM; GI50 [18]: < 10 nM; vmax of tubulin polymerization ([1]; 10 μM): 0.92 mOD/min; GI50 ([13]; SK-MEL-5): 14.6 nM; GI50 ([19]; SR): 43.9 nM; GI50 ([14]; Malme-3M): > 100000 nM; GI50 ([15]; UO-31): 64 nM |
| C=CC1C(=O)N(c2cc(OC)c(OC)c(OC)c2)C1c1ccc(OC)c(OP(=O)(O)O)c1 (stereo not shown) [Compound 17b, 2-Methoxy-5-(1-(3,4,5-trimethoxyphenyl)-4-oxo-3-vinylazetidin-2-yl)phenyl dihydrogen phosphate] | – | – | – | 88.4 | 115 | 64.8 | 71.7 | 66.9 | 190 | 229 | 85.8 | 53.6 | 37 | 2780 | 31.2 | > 24 | > 24 | > 24 | 54500 | 254 | GI50 [17, 35]: 129 nM; GI50 [18, 36]: 42 nM; GI50 [19, 37]: 57.2 nM |
| CCC1C(=O)N(c2cc(OC)c(OC)c(OC)c2)C1c1ccc(OC)c(OP(=O)(O)O)c1 (stereo not shown) [Compound 17c, 5-(3-Ethyl-1-(3,4,5-trimethoxyphenyl)-4-oxoazetidin-2-yl)-2-methoxyphenyl dihydrogen phosphate] | – | – | – | 43.3 | 33.8 | 36.9 | 35.2 | 37.6 | 40.9 | 44.5 | 54.4 | 34.9 | 19.1 | 356 | 19 | > 24 | > 24 | > 24 | 71400 | 42.6 | GI50 [17, 35]: 47.7 nM; GI50 [18, 36]: 16.2 nM; GI50 [19, 37]: 33.5 nM |
